These results are taken from patent US20220184028A1, “TREATMENT OF AMYOTROPHIC LATERAL SCLEROSIS USING PKC ACTIVATORS” (Synaptogenix, Inc., priority 2020, published 2022).

This data set is described as follows: Blood-brain-barrier crossing, brain and plasma levels in mice. To be noted: intravenous. Format: in vivo. How it is done: Further evaluation may be performed on bryostatin or other PKC activating compound crossing the blood-brain-barrier (BBB) and the steady state levels of bryostatin or other PKC activating compound in the brain and plasma of mice.
In contrast, plasma concentrations of bryostatin or other PKC activating compound may be greater when the drug is administered as a single injection for three consecutive weeks. Blood plasma concentrations of bryostatin or other PKC activating compound may be less in mice receiving a 25 μg/m^2 dose as a “1 on/1 off” or a “2 on/1 off” administration. Without being bound to a specific theory, it may be hypothesized that the intermittent dosing regimen facilitates the transport of bryostatin or other PKC activating compound across the BBB.

Consider `CCC/C=C/C=C/C(=O)O[C@H]1/C(=C/C(=O)OC)C[C@H]2C[C@H]([C@@H](C)O)OC(=O)C[C@H](O)C[C@@H]3C[C@H](OC(C)=O)C(C)(C)[C@](O)(C[C@@H]4C/C(=C/C(=O)OC)C[C@H](/C=C/C(C)(C)[C@]1(O)O2)O4)O3` [Bryostatin-1], for which the crossing the blood-brain-barrier entry was “crosses the BBB”.
